Reference: patent publication US10399966B2, “Compounds for treatment of trypanosomes and neurological pathogens and uses thereof” (The University of North Carolina at Chapel Hill, priority 2016, dated 2019)
Where two headings read alike, the source gives them in different places.

Experiments:
[1] = Distribution between mouse plasma and brain (brain penetration, ip); format: in vivo; settings: for Brain/plasma ratio / [compound]Brain / [compound]Plasma: Table 14, mice, single ip dose 5 mg/kg, one hour post-dose; for Kp at 1 h / concentration at 1 h: mouse; for Kp at 1 h: brain and plasma, read-out: Average brain/plasma ratio; for [compound]Brain / [compound]Plasma: ± SEM of 3 mice (compound 3: 6 mice)
Protocol: For distribution of compounds between mouse plasma and brain, mice (in groups of 3) were injected with test compounds (5 mg/kg ip) and sacrificed at the indicated times for collection of plasma and brain. Compound was dissolved in 0.4 mL of dosing solution (7% Tween 80, 3% ethanol, 5% DMSO, 0.9% saline) for ip injections. The brains were weighed and immediately frozen, then later homogenized in acetonitrile using a Dounce homogenizer. Prior to animal studies, recovery of test compound was carried out by adding a known amount to a mouse brain in the test extraction solvent and performing the homogenization. Compound recovery was determined by liquid chromatography/tandem mass spectrometry analysis relative to a standard compound amount. Blood was taken from the same mice in heparinized capillary tubes (Fisherbrand) for determination of compound concentration in plasma. The concentration of compound in the brain was obtained by dividing the moles of compound in the brain by the brain volume (obtained from the brain weight assuming 1 g is 1 mL) and correcting for the brain vasculature volume of 2.5% by weight.
Brain penetration studies (Table 14) were initially performed upon compounds 1, 2, and 3, but were expanded to include other compounds in order to explore the SAR of brain penetration. Groups of three mice were given single 5 mg/kg ip doses of the test compounds and were sacrificed 1 h post-dose.

[2] = test system: Trypanosoma cruzi; assay: Efficacy against T. cruzi in vitro; format: cell-based; settings: Trypanosoma cruzi, Table 10; for EC50: read-out: T.cruzi EC50; for EC90: read-out: T.cruzi EC90
[3] = test system: human hepatocytes HepG2; assay: Cytotoxicity against HepG2 cells; settings: for EC50: Homo sapiens, HepG2, read-out: HepG2 EC50; for EC90: read-out: HepG2 EC90, concentration required to inhibit growth by 90%, human hepatocytes
[4] = Metabolic stability in mouse liver microsomes; format: in vitro ADME; settings: for Mouse microsomes t1/2: Table 12, 37° C., NADPH (1 mM), microsomes 0.5 mg/mL, test compounds 1.5 μM
Protocol: (§1) Metabolic stability was evaluated using liver microsomes derived from mouse and human sources. Microsomal incubations were carried out according to a protocol described previously (Wang et al., Antimicrob. Agents Chemother. 54:2507 (2010)) with modifications. Briefly, substrate stock solutions were prepared in DMSO and DMSO content was kept at 0.5% (v/v) in final incubations. Incubation mixtures ([…]), liver microsomes (0.5 mg/mL) from mouse (pool of 1000, CD-1 male mouse) or human (pool of 50, mixed gender) (XenoTech LLC, Lenexa, Kans.) in a phosphate buffer (100 mM, pH 7.4) containing 3.3 mM MgCl2. After a 5-minute pre-equilibration period at 37° C., reactions (in triplicate) were initiated by adding the NADPH cofactor (1 mM). For NADPH-independent reactions, the cofactor was replaced with water. Aliquots (10 μl) of the reaction mixtures were removed at 0, 15, 30, and 60 minutes and individually mixed with 200 μL of ice-cold acetonitrile containing internal standard. The mixtures were vortex-mixed, and precipitated protein was removed by centrifugation at 2,250×g for 15 min. The supernatant fractions were dried using a 96-well microplate evaporator (Apricot Designs Inc., Covina, Calif.) under N2 at 50° C. and reconstituted with 100 μL 50% methanol containing 0.1% trifluoroacetic acid before UPLC-MS/MS analysis. In vitro half-life (t1/2) was obtained by analyzing the substrate concentration vs. incubation time curve using the one-phase exponential decay model (GraphPad Prism® 5.0, San Diego, Calif.).

[5] = test system: T. b. brucei; assay: In vitro antitrypanosomal activity against T. brucei (growth inhibition); format: cell-based, Trypanosoma brucei; settings: Trypanosoma brucei; for EC90: read-out: T. brucei EC90
Summary of the method: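 Dose-response EC50 against T. brucei parasites with 0.4% DMSO final, 48 h at 37 °C; parasite density quantified by ATP luminescence (CellTiter-Glo).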

[6] = test system: human lymphocytes CRL-8155; assay: Cytotoxicity against CRL-8155 cells; settings: human lymphoblasts; for EC50: read-out: CRL-8155 EC50, concentration required to inhibit growth by 50%; for EC90: read-out: CRL-8155 EC90, concentration required to inhibit growth by 90%
Protocol: The selectivity of each compound for the parasite over each of the two cell lines was calculated.

[7] = Metabolic stability in human liver microsomes; format: in vitro ADME; settings: for Human microsomes, percentage of compound remaining / half-life at 1.5 μM / Human microsomes t1/2: Table 12; for Human microsomes, percentage of compound remaining: after 60 min (where t1/2 > 60 min); for half-life at 1.5 μM / Human microsomes t1/2: 37° C., NADPH (1 mM), microsomes 0.5 mg/mL, test compounds 1.5 μM; for half-life at 1.5 μM: read-out: Human microsomes t1/2
Protocol: as §1

[8] = Mouse oral pharmacokinetics; format: in vivo
Protocol: […] Experiments were performed with groups of three mice per compound. Plasma was separated and extracted with acetonitrile for measurements of compound concentrations by liquid chromatography/tandem mass spectrometry.

[9] = Table 8, groups of 3 mice (compound 3: ± SEM of 6 mice)
[10] = intraperitoneal, 5 mg/kg, Table 7, groups of 3 mice
[11] = brain, intraperitoneal, 5 mg/kg, Table 7, groups of 3 mice, read-out: Average [compound] brain
[12] = plasma, intraperitoneal, 5 mg/kg, Table 7, groups of 3 mice, read-out: Average [compound] plasma
[13] = Table 7, read-out: T. brucei EC50
[14] = Table 11, read-out: T. b. brucei EC50
[15] = Table 12, read-out: T. b. brucei EC50
[16] = Table 9, read-out: T. brucei EC50
[17] = both sexes, human, liver microsomes, pH 7.4

melting point [°C]	Brain/plasma ratio [1]	Kp at 1 h [1, 10]	concentration at 1 h [1, 11] [nM]	concentration at 1 h [1, 12] [nM]	EC50 [2] [nM]	EC90 [2] [nM]	Mouse microsomes t1/2 [4] [min]	Human microsomes, percentage of compound remaining [7] [%]	half-life at 1.5 μM [7, 17] [min]	Human microsomes t1/2 [7] [min]	Compound	EC50 [3] [nM]	EC90 [3] [nM]	EC50 [5, 13] [nM]	EC50 [5, 14] [nM]	EC50 [5, 15] [nM]	EC50 [5, 16] [nM]	EC90 ([5]; Table 9) [nM]	EC50 [6] [nM]	EC90 [6] [nM]	other results
221 to 223	1.81 ± 0.458	1.81 ± 0.793	4250 ± 1200	2610 ± 1260	339	483	14	66	> 60	–	O=C(Nc1ccc2sc(-c3ccc(F)c(F)c3)nc2c1)N1CCCC1 [Compound 2, 2-(3,4-Difluorophenyl)-5-(N-pyrrolidylamido)benzothiazole]	> 50000	> 50000	91.8	91.8	91.8	91.8	181	33900	> 50000	Average [compound] brain [1, 9]: 4.25 ± 1.20 µM; Average [compound] plasma [1, 9]: 2.61 ± 1.26 µM; Kp at 1 h ([1]; intraperitoneal, 5 mg/kg, Table 5, mouse brain penetration (60 min), n = 3): 1.81 ± 0.793; Kp at 1 h ([1]; intraperitoneal, 5 mg/kg, Table 8, groups of 3 mice): 1.81 ± 0.793; concentration at 60 min ([1]; plasma, intraperitoneal, 5 mg/kg, Table 5 r15, mouse brain penetration (60 min), n = 3): 2610 ± 1260 nM; Microsome t1/2 (min) Mouse ([4]; Table 5): 13.8 min; EC50 ([5]; Table 8, read-out: T. brucei EC50): 91.8 nM; half-life at 3 μM ([7]; both sexes, human, liver microsomes, pH 7.4, Table 5, read-out: Microsome t1/2 (min) Human): > 60 min; Mouse oral PK Tlast ([8]; Table 5): 480 min; Mouse oral PK Average AUC ([8]; Table 5, n = 3): 408 ± 95 (n = 3) min * μmol/L; AUC0 min-∞ ([8]; Table 13, mice, single 50 mg/kg oral gavage, vehicle Tween 80 (7%), EtOH (3%), DMSO (5%) in 0.9% NaCl, ± SEM of 3 mice): 443.3 ± 43.07 µM·min; Cmax ([8]; Table 13, mice, single 50 mg/kg oral gavage, vehicle Tween 80 (7%), EtOH (3%), DMSO (5%) in 0.9% NaCl, ± SEM of 3 mice, read-out: Cmax): 2010 ± 460 nM; Cmax ([8]; mouse, plasma, po, 50 mg/kg, Table 5, n = 3, read-out: Mouse oral PK Average Cmax): 2000 ± 820 nM; Tmax ([8]; mouse, plasma, po, 50 mg/kg, Table 5, read-out: Mouse oral PK Tmax (converted)): 60 min
232 to 233	1.01 ± 0.037	1.01 ± 0.064	2280 ± 920	2220 ± 798	631	697	12	–	–	37	O=C(Nc1ccc2sc(-c3cccc(F)c3)nc2c1)N1CCCC1 [Compound 6, 2-(3-Fluorophenyl)-5-(N-pyrrolidylamido)benzothiazole]	> 50000	> 50000	158	158	158	158	391	> 50000	> 50000	[compound]Brain [1]: 2.28 ± 0.532 µM; [compound]Plasma [1]: 2.22 ± 0.461 µM
207 to 209	–	–	–	–	–	–	11	77	> 60	–	O=C(Nc1ccc2oc(-c3ccccc3)nc2c1)N1CCCCC1 [Compound 16, 2-Phenyl-5-N-piperidylamidobenzoxazole]	–	–	–	–	2800	2800	9300	–	–	–
–	–	–	–	–	–	–	50	53	> 60	–	O=C(Nc1ccc2sc(-c3ccccc3)nc2c1)c1ccccc1 [Compound 17, 5-Benzamido-2-phenylbenzothiazole]	–	–	–	–	2380	2380	7740	–	–	–
210 to 211	1.24 ± 0.157	1.24 ± 0.272	4240 ± 1210	3400 ± 569	564	861	18	–	–	30	O=C(Nc1ccc2sc(-c3ccccc3)nc2c1)N1CCCC1 [Compound 7, 2-Phenyl-5-(N-pyrrolidylamido)benzothiazole]	> 50000	> 50000	325	325	325	325	817	> 50000	> 50000	[compound]Brain [1]: 4.24 ± 0.698 µM; [compound]Plasma [1]: 3.403 ± 0.328 µM
216 to 217	–	–	–	–	320	503	11	–	–	8.9	O=C(Nc1ccc2sc(-c3cccc(F)c3)nc2c1)N1CCCCC1 [Compound 29, 2-(3-Fluorophenyl)-5-(N-piperidylamido)benzothiazole]	> 50000	> 50000	–	174	174	174	602	> 50000	> 50000	–
230 to 232	–	–	–	–	826	1070	17	62	> 60	–	O=C(Nc1ccc2sc(-c3ccccc3)nc2c1)N1CCCCC1 [Compound 23, 2-Phenyl-5-(N-piperidylamido)benzothiazole]	> 50000	> 50000	–	366	366	366	809	> 50000	> 50000	–

Compound	melting point [°C]	Brain/plasma ratio [1]	Kp at 1 h [1, 10]	concentration at 1 h [1, 11] [nM]	concentration at 1 h [1, 12] [nM]	EC50 [2] [nM]	EC90 [2] [nM]	Mouse microsomes t1/2 [4] [min]	Human microsomes, percentage of compound remaining [7] [%]	half-life at 1.5 μM [7, 17] [min]	Human microsomes t1/2 [7] [min]	EC50 [3] [nM]	EC90 [3] [nM]	EC50 [5, 13] [nM]	EC50 [5, 14] [nM]	EC50 [5, 15] [nM]	EC50 [5, 16] [nM]	EC90 ([5]; Table 9) [nM]	EC50 [6] [nM]	EC90 [6] [nM]	other results
O=C(Nc1ccc2oc(-c3ccccc3)nc2c1)c1ccccc1 [Compound 15, 5-Benzamido-2-phenylbenzoxazole]	–	–	–	–	–	–	–	17	–	–	60	–	–	–	–	–	–	–	–	–	EC50 ([5]; read-out: T. b. brucei EC50): > 10000 nM; EC50 ([5]; read-out: T. brucei EC50): > 10000 nM; EC90 [5]: > 10000 nM
